The term IC50 denotes the concentration that inhibits the measured activity by half.

For 21 compounds, IC50 results are on record in patent US12221448B2, “Selective PI3Kδ inhibitor and use thereof” (TARAPEUTICS SCIENCE INC., priority 2018, dated 2025).

Holding throughout (type): biochemical
The target in one assay is T1, PI3Kβ (Homo sapiens, UniProt P42338).
T1 construct: purchased sigma (US)
In words: In vitro enzyme activity (ADP-Glo) against PI3Kβ. The settings on record: ATP 10 μM, PIP2:PS 50 μM. The protocol: (§1) In vitro enzyme activity experiments were performed to determine the IC50 values of the compounds against PI3K family type I kinases (PI3Kα, PI3Kβ, PI3Kγ, PI3Kδ) and type II kinases (PIK3C2A, PIK3C2B). Protein kinases PI3Kα, PI3Kγ, PI3Kδ, PIK3C2A, and PIK3C2B were all purchased from Invitrogen (US); protein kinase PI3Kβ was purchased from sigma (US); the three substrates PIP2: PS, PI and PI: PS were purchased from Invitrogen (US).
(§2) Protein kinases diluted to a certain concentration, i.e., PI3Kα 5.4 μL (with a final concentration of 0.16 ng/μL), PI3Kβ 5.4 μL (with a final concentration of 6 ng/μL), PI3Kδ 5.4 μL (with a final concentration of 1 ng/μL), PI3Kγ 5.4 μL (with a final concentration of 5 ng/μL), PIK3C2A 5.4 μL (with a final concentration of 5 ng/μL), and PIK3C2B 5.4 μL (with a final concentration of 10 ng/μL) were respectively reacted with 1 μL of the serially diluted drug compounds for 1 hour at room temperature (final drug concentrations were 10 μM, 1 μM, 0.3 μM, 0.1 μM, 0.03 μM, 0.01 μM, 0.003 μM, and 0.001 μM, respectively).
(§3) To each reaction tube of the above PI3K family type I kinases, 6 μL of a mixture of ATP (Promega, US) and substrate PIP2:PS (final concentrations of ATP in the reaction systems of kinases PI3Kα, and PI3Kβ were 10 μM, and final concentrations of ATP in the reaction systems of kinases PI3Kδ, and PI3Kγ were 50 μM, and final concentrations of the substrate PIP2:PS were all 50 μM) was added, and reacted at 37° C. for 1 hour. The reaction buffer was 50 mM Hepes (pH 7.5) (Promega, USA), 3 mM MgCl2, 1 mM EGTA (Promega, US), 100 mM NaCl, 0.03% CHAPS (Promega, US).
(§4) 5 μL of kinase solution after reaction was placed in a 384-well plate (Corning, US), and 5 μL of ADP-Glo™ reagent (Promega, US) was added thereto and reacted at room temperature for 40 minutes to stop the kinase reaction and exhaust the remaining ATP; 10 μL of kinase detection reagent was added to convert ADP into ATP, and coupled luciferase/luciferin reaction was utilized to detect the newly synthesized ATP. Envision was utilized for readout and plotting, and Graphpad IC50 value was calculated.
(In general: ADP-Glo turns the ADP formed in a reaction into a luminescent signal.)

The target of the next assay is T2, PI3Kα (Homo sapiens, UniProt P42336).
T2 construct: purchased Invitrogen (US)
In words: In vitro enzyme activity (ADP-Glo) against PI3Kα. To be noted: Table 2; ATP 10 μM, PIP2:PS 50 μM. The protocol: as §1, §2, §3, §4

The target of a further assay is T3, PI3Kγ (Homo sapiens, UniProt P48736).
T3 construct: purchased Invitrogen (US)
In words: In vitro enzyme activity (ADP-Glo) against PI3Kγ. To be noted: ATP 50 μM, PIP2:PS 50 μM. The protocol:
as §1, §2, §3, §4

Another assay addresses T4, PI3Kδ (Homo sapiens, UniProt O00329).
T4 construct: purchased Invitrogen (US)
In words: In vitro enzyme activity (ADP-Glo) against PI3Kδ. The settings on record: Table 2; ATP 50 μM, PIP2:PS 50 μM. The protocol:
as §1, §2, §3, §4

The mark [1] stands for this setting: Table 2, read-out: IC50 against PI3Kβ.
[2] abbreviates: Table 2, read-out: IC50 against PI3Kγ.

Like-named read-outs stand apart in the source and are kept apart here.

T3 sequence (P48736 whole entry): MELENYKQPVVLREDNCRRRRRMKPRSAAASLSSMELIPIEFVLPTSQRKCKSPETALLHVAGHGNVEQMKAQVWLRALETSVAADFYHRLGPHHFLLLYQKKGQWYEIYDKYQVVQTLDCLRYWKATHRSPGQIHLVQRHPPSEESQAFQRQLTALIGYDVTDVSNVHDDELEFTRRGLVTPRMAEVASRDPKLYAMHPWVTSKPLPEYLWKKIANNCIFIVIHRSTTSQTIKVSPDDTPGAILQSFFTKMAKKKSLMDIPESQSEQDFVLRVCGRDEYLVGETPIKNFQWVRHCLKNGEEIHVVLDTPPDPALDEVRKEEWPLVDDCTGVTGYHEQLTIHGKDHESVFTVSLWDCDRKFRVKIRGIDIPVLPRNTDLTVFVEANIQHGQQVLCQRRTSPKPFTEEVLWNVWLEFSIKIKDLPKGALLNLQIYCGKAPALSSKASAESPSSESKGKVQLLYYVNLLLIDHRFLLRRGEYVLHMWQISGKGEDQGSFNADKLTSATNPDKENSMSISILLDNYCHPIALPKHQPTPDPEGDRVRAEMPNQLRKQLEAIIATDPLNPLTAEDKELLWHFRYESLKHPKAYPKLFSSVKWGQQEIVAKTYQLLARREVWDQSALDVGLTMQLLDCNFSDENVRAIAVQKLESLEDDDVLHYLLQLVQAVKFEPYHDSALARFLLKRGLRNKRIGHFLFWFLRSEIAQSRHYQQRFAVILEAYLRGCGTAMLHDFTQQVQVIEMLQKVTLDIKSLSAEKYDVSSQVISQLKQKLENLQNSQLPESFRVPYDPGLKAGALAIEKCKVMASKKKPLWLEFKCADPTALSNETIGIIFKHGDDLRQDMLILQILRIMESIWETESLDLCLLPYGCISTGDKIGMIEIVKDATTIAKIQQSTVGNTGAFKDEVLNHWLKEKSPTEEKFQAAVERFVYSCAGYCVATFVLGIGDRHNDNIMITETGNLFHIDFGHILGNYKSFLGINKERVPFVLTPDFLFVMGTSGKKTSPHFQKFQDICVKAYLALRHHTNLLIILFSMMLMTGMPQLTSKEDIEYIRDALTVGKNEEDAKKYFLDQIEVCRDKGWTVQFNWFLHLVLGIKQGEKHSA
T1 sequence (P42338 whole entry): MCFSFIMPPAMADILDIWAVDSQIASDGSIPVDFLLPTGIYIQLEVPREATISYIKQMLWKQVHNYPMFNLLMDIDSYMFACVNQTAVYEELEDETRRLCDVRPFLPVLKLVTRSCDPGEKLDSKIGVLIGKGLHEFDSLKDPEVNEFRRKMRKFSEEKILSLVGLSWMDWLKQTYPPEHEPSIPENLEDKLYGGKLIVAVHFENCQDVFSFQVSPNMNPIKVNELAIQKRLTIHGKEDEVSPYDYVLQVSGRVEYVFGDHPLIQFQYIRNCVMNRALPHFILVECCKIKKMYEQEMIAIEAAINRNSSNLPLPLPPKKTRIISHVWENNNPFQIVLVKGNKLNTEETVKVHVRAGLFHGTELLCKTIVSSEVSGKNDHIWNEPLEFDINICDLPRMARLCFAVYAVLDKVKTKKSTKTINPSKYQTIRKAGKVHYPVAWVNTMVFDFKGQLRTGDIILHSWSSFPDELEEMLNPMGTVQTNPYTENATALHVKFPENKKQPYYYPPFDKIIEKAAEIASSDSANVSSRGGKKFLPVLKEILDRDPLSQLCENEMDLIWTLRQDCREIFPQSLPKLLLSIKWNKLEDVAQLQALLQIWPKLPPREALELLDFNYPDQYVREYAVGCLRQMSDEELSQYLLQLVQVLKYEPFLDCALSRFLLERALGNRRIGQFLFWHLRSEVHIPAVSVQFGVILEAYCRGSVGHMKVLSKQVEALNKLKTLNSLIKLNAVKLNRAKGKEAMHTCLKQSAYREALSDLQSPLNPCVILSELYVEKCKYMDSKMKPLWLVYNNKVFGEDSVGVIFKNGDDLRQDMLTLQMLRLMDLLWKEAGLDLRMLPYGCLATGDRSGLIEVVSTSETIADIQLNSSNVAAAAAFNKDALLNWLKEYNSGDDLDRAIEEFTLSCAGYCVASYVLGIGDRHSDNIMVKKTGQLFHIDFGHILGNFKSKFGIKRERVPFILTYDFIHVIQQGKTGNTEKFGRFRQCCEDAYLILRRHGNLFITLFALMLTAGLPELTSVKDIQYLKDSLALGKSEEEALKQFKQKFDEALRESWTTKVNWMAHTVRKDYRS
T1 sequence (P27986 whole entry partner): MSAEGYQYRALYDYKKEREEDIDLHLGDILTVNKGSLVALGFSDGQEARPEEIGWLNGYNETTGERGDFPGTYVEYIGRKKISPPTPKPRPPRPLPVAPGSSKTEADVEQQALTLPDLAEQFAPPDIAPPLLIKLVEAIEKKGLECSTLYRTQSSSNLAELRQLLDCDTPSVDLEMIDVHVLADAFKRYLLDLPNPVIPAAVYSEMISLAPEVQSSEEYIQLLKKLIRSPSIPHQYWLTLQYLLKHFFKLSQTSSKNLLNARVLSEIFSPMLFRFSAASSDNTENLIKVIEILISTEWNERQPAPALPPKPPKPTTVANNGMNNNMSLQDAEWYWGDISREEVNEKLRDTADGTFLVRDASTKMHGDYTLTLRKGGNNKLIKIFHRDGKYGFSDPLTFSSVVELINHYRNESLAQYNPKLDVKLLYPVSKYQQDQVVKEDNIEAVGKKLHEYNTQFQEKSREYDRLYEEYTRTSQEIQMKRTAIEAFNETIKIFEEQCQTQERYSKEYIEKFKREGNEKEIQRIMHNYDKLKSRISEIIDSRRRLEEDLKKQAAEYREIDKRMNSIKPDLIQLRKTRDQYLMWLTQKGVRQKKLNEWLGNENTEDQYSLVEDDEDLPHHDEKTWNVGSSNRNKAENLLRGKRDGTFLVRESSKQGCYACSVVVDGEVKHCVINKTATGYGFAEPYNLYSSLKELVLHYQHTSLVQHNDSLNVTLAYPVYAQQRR
T2 sequence (P42336 whole entry): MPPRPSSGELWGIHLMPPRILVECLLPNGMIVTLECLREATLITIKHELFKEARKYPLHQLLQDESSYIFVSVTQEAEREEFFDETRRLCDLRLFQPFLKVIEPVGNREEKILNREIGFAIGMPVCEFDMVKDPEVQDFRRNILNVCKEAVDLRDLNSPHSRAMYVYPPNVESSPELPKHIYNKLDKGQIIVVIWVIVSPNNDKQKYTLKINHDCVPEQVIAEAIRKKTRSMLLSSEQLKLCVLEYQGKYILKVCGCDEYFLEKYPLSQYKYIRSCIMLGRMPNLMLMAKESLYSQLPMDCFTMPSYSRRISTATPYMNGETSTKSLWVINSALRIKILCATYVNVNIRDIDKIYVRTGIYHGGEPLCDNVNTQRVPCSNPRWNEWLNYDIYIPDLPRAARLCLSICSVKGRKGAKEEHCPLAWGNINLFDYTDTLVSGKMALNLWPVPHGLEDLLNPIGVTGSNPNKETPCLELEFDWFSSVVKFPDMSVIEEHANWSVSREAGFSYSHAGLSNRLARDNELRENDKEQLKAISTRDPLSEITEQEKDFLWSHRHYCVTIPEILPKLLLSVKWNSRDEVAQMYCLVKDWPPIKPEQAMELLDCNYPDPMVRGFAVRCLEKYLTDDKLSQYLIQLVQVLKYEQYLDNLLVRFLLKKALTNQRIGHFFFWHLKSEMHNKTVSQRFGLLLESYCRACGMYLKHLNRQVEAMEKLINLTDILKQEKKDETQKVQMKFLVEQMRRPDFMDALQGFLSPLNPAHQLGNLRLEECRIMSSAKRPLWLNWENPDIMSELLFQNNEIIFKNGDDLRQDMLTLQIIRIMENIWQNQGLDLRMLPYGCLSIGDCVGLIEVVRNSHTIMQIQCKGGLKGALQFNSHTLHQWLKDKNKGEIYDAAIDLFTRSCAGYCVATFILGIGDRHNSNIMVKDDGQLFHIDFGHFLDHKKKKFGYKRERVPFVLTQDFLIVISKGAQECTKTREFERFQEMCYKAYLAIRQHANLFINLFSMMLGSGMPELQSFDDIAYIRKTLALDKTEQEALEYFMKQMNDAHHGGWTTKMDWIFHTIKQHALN
T2 sequence (P27986 whole entry partner): as the sequence (P27986 whole entry partner) above
T4 sequence (O00329 whole entry): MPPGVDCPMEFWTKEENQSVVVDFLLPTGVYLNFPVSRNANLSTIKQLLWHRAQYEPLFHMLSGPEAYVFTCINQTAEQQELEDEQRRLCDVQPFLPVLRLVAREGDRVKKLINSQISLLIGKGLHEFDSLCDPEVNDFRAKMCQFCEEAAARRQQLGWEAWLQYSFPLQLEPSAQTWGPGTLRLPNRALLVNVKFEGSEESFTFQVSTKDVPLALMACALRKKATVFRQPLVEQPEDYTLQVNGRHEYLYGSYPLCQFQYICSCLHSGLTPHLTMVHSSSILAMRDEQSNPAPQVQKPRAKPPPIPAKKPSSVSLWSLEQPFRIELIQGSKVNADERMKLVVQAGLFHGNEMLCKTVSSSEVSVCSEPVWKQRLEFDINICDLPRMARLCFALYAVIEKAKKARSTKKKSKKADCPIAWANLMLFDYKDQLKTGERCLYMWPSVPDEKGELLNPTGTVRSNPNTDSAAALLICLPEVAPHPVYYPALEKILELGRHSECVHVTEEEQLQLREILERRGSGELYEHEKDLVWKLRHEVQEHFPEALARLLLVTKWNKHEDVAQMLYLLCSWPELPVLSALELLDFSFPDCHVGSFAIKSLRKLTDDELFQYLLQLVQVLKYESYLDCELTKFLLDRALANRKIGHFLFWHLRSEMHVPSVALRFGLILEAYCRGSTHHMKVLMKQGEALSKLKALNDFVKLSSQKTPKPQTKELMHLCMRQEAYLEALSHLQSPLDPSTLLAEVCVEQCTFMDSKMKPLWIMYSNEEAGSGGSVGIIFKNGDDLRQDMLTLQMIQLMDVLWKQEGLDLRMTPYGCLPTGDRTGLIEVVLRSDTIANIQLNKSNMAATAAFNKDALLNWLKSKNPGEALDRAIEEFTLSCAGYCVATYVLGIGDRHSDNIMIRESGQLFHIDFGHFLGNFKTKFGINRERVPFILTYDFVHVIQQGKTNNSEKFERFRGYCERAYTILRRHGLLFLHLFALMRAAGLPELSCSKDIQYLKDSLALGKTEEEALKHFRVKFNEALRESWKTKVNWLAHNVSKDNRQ
T4 sequence (P27986 whole entry partner): as the sequence (P27986 whole entry partner) above

As to `COc1ccc(-c2nn(C(C)c3nc4cccc(F)c4c(=O)n3C3CC3)c3ncnc(N)c23)cc1F` (stereo not shown) [Compound 8, 2-(1-(4-amino-3-(3-fluoro-4-methoxyphenyl)-1H-pyrazolo [3,4-d]pyrimidin-1-yl)ethyl)-3-cyclopropyl-5-fluoroquinazolin-4(3H)-one], the IC50 at PI3Kβ (setting [1]) came to 1.3 µM; at PI3Kα, 1.72 µM; on PI3Kγ (setting [2]), 0.148 µM; against PI3Kδ, 0.014 µM.
With `COc1ccc(-c2nn(C(C)c3nc4cccc(F)c4c(=O)n3C3CCC3)c3ncnc(N)c23)cc1` (stereo not shown) [Compound 19, 2-(1-(4-amino-3-(4-methoxyphenyl)-1H-pyrazolo [3,4-d]pyrimidin-1-yl)ethyl)-3-cyclobutyl-5-fluoroquinazolin-4(3H)-one], the IC50 on PI3Kβ (setting [1]) is 0.547 µM; at PI3Kγ (setting [2]), 0.689 µM; against PI3Kδ, 0.0379 µM.
Take `CCC(c1nc2ccc(F)cc2c(=O)n1C1CC1)n1nc(-c2ccc(OC)c(F)c2)c2c(N)ncnc21` (stereo not shown) [Compound 23, 2-(1-(4-amino-3-(3-fluoro-4-methoxyphenyl)-1H-pyrazolo [3,4-d]pyrimidin-1-yl)propyl)-3-cyclopropyl-6-fluoroquinazolin-4(3H)-one]: the IC50 was found to be 0.999 µM at PI3Kβ (setting [1]), 6.44 µM at PI3Kα, 0.922 µM at PI3Kγ (setting [2]) and 0.0095 µM against PI3Kδ.
Take `COc1ccc(-c2nn(C(C)c3nc4ccc(F)cc4c(=O)n3C3CC3)c3ncnc(N)c23)cc1` (stereo not shown) [Compound 42, 2-(1-(4-amino-3-(4-methoxyphenyl)-1H-pyrazolo [3,4-d]pyrimidin-1-yl)ethyl)-3-cyclopropyl-6-fluoroquinazolin-4(3H)-one]: the IC50 at PI3Kβ (setting [1]) came out at 0.69 µM; against PI3Kα it was 3.77 µM; at PI3Kγ (setting [2]) it was 0.576 µM; against PI3Kδ, 0.0083 µM.
In turn, `CC[C@H](c1nc2cccc(F)c2c(=O)n1C1CC1)n1nc(-c2ccc(OC)c(F)c2)c2c(N)ncnc21` [Compound 82, 2-((R)-1-(4-amino-3-(3-fluoro-4-methoxyphenyl)-1H-pyrazolo [3,4-d]pyrimidin-1-yl)propyl)-3-cyclopropyl-5-fluoroquinazolin-4(3H)-one] came in with an IC50 against PI3Kδ of 0.0367 µM.
Consider `COc1ccc(-c2nn(C(C)c3nc4cccc(F)c4c(=O)n3C3CCC3)c3ncnc(N)c23)cc1F` (stereo not shown) [Compound 1, 2-(1-(4-amino-3-(3-fluoro-4-methoxyphenyl)-1H-pyrazolo [3,4-d]pyrimidin-1-yl)ethyl)-3-cyclobutyl-5-fluoroquinazolin-4(3H)-one], for which the half-inhibitory concentration (IC50) worked out at 2.96 µM on PI3Kβ (setting [1]), 7.41 µM against PI3Kα, 4.09 µM on PI3Kγ (setting [2]) and 0.0274 µM against PI3Kδ.
The compound `CCC(c1nc2cc(F)c(F)cc2c(=O)n1C1CC1)n1nc(-c2ccc(OC)c(F)c2)c2c(N)ncnc21` (stereo not shown) [Compound 56, 2-(1-(4-amino-3-(3-fluoro-4-methoxyphenyl)-1H-pyrazolo [3,4-d]pyrimidin-1-yl)propyl)-3-cyclopropyl-6,7-difluoroquinazolin-4(3H)-one] registered an IC50 against PI3Kδ of 0.0567 µM.
The same measure, in the same setting: the figure for `CC(=O)Nc1ccc(-c2nn(C(C)c3nc4cccc(F)c4c(=O)n3C3CCC3)c3ncnc(N)c23)cc1` (stereo not shown) [Compound 53, N-(4-(4-amino-1-(1-(3-cyclobutyl-5-fluoro-4-oxo-3,4-dihydroquinazolin-2-yl)ethyl)-1H-pyrazolo[3,4-d]pyrimidin-3-yl)phenyl)acetamide] is 0.0438 µM.
Consider `COc1ccc(-c2nn(C(C)c3nc4ccccc4c(=O)n3C3CC3)c3ncnc(N)c23)cc1F` (stereo not shown) [Compound 10, 2-(1-(4-amino-3-(3-fluoro-4-methoxyphenyl)-1H-pyrazolo [3,4-d]pyrimidin-1-yl)ethyl)-3-cyclopropylquinazolin-4(3H)-one], for which the figures for the IC50 on PI3Kβ (setting [1]), on PI3Kγ (setting [2]) and on PI3Kδ were 0.122 µM, 0.103 µM and 0.0064 µM, respectively.
`COc1ccc(-c2nn(Cc3nc4cccc(F)c4c(=O)n3C3CCC3)c3ncnc(N)c23)cc1F` [Compound 7, 2-((4-amino-3-(3-fluoro-4-methoxyphenyl)-1H-pyrazolo [3,4-d]pyrimidin-1-yl)methyl)-3-cyclobutyl-5-fluoroquinazolin-4(3H)-one]: on PI3Kδ, the IC50 was 0.0999 µM.
The same measure, in the same setting: the figure for `COc1ccc(-c2nn(C(C)c3nc4cccc(F)c4c(=O)n3C3CCC3)c3ncnc(N)c23)cn1` (stereo not shown) [Compound 54, 2-(1-(4-amino-3-(6-methoxypyridin-3-yl)-1H-pyrazolo [3,4-d]pyrimidin-1-yl)ethyl)-3-cyclobutyl-5-fluoroquinazolin-4(3H)-one] is 0.039 µM.
With `CC[C@@H](c1nc2cccc(F)c2c(=O)n1C1CC1)n1nc(-c2ccc(OC)c(F)c2)c2c(N)ncnc21` [Compound 81, 2-((S)-1-(4-amino-3-(3-fluoro-4-methoxyphenyl)-1H-pyrazolo [3,4-d]pyrimidin-1-yl)propyl)-3-cyclopropyl-5-fluoroquinazolin-4(3H)-one], the IC50 on PI3Kβ (setting [1]) stood at 0.79 µM; on PI3Kγ (setting [2]), 0.471 µM; against PI3Kδ it was 0.0164 µM.
Consider `CCC(c1nc2ccccc2c(=O)n1C1CC1)n1nc(-c2ccc(OC)c(F)c2)c2c(N)ncnc21` (stereo not shown) [Compound 11, 2-(1-(4-amino-3-(3-fluoro-4-methoxyphenyl)-1H-pyrazolo [3,4-d]pyrimidin-1-yl)propyl)-3-cyclopropylquinazolin-4(3H)-one], for which the values for the IC50 on PI3Kβ (setting [1]), on PI3Kγ (setting [2]) and at PI3Kδ were 0.27 µM, 0.389 µM and 0.0183 µM, respectively.
As to `CCC(c1nc2cccc(F)c2c(=O)n1C1CC1)n1nc(-c2ccc(OC)nc2)c2c(N)ncnc21` (stereo not shown) [Compound 50, 2-(1-(4-amino-3-(6-methoxypyridin-3-yl)-1H-pyrazolo [3,4-d]pyrimidin-1-yl)propyl)-3-cyclopropyl-5-fluoroquinazolin-4(3H)-one], the IC50 against PI3Kδ stood at 0.0485 µM.
`COc1ccc(-c2nn(C(C)c3nc4ccccc4c(=O)n3C3CC3)c3ncnc(N)c23)cc1C` (stereo not shown) [Compound 44, 2-(1-(4-amino-3-(4-methoxy-3-methylphenyl)-1H-pyrazolo [3,4-d]pyrimidin-1-yl)ethyl)-3-cyclopropylquinazolin-4(3H)-one] showed an IC50 against PI3Kδ of 0.0398 µM.
With `CC(C)Oc1ccc(-c2nn([C@@H](C)c3oc4ccc(F)cc4c(=O)c3-c3cccc(F)c3)c3ncnc(N)c23)cc1F` [TGR1202, reference compound], the IC50 was > 10 µM at PI3Kβ (Table 3, read-out: IC50 PIK3β) and 0.362 µM at PI3Kγ (Table 3, read-out: IC50 PIK3γ).
`COc1ccc(-c2nn(C(C)c3nc4ccccc4c(=O)n3C3CCC3)c3ncnc(N)c23)cc1C` (stereo not shown) [Compound 39, 2-(1-(4-amino-3-(4-methoxy-3-methylphenyl)-1H-pyrazolo [3,4-d]pyrimidin-1-yl)ethyl)-3-cyclobutylquinazolin-4(3H)-one] displayed an IC50 against PI3Kδ of 0.0235 µM.
On the same count and under the same terms, the figure for `CCC(c1nc2cccc(F)c2c(=O)n1C1CC1)n1nc(-c2ccc(OC)c(OC)c2)c2c(N)ncnc21` (stereo not shown) [Compound 47, 2-(1-(4-amino-3-(3,4-dimethoxyphenyl)-1H-pyrazolo [3,4-d]pyrimidin-1-yl)propyl)-3-cyclopropyl-5-fluoroquinazolin-4(3H)-one] is 0.0321 µM; for `COc1ccc(-c2nn(C(C)c3nc4c(Cl)cccc4c(=O)n3C3CCC3)c3ncnc(N)c23)cc1F` (stereo not shown) [Compound 29, 2-(1-(4-amino-3-(3-fluoro-4-methoxyphenyl)-1H-pyrazolo [3,4-d]pyrimidin-1-yl)ethyl)-8-chloro-3-cyclobutylquinazolin-4(3H)-one] it is 0.0773 µM.
Turning to `COc1ccc(-c2nn(C(C)c3nc4cccc(F)c4c(=O)n3C3CCCC3)c3ncnc(N)c23)cc1` (stereo not shown) [Compound 14, 2-(1-(4-amino-3-(4-methoxyphenyl)-1H-pyrazolo [3,4-d]pyrimidin-1-yl)ethyl)-3-cyclopentyl-5-fluoroquinazolin-4(3H)-one], the IC50 on PI3Kβ (setting [1]) was > 10 µM; on PI3Kγ (setting [2]), > 10 µM; at PI3Kδ, 0.0319 µM.
Turning to `COc1ccc(-c2nn(C(C)c3nc4cccc(F)c4c(=O)n3C3CCC3)c3ncnc(N)c23)cc1OC` (stereo not shown) [Compound 27, 2-(1-(4-amino-3-(3,4-dimethoxyphenyl)-1H-pyrazolo [3,4-d]pyrimidin-1-yl)ethyl)-3-cyclobutyl-5-fluoroquinazolin-4(3H)-one], the values for the IC50 against PI3Kα, on PI3Kγ (setting [2]) and against PI3Kδ were 1.1 µM, 0.434 µM and 0.0103 µM, respectively.
